Entries after “also recorded” stand apart in the source; their conditions may differ.

One compound from patent US10155802B2, “Locally-active anticoagulants and anti-inflammatory agents” (priority 2011, dated 2018) can be followed below.

One test has as its target thrombin (Homo sapiens, UniProt P00734). Kind of test: Fibrinogen clotting assay (concentration needed to double the clotting time = IC50). In kind it is biochemical. To be noted: for IC50: IC50 (anti-clotting). As for the experimental part: The same enzyme kinetic assays were used to determine the inhibitory activities of MH2 and two MH2-derived peptides, MH2-allGS and MH2-GS (Table 4). Clotting assays were carried out to determine the inhibitory activities of the rest of the MH2 peptides by use of the protocols described previously (DiMaio 1990; Taka 2000; Su 2004). The assay employs bovine plasma fibrinogen dissolved at 0.1% in 50 mM Tris-Cl, 100 mM NaCl, 0.1% PEG-8000 at pH 7.6 (i.e. the clotting buffer). In addition to the use of optical densities or ODs (Gill 1989), concentrations of the peptide stock solutions were ranked (and corrected when necessary) by use of quantitative proton NMR spectroscopy (Cavaluzzi 2002). Each assay mixture contained a certain concentration of the peptide, and the reaction was started by the addition of human thrombin to a final concentration of approximately 0.5 nM. Optical absorbance of the assay mixtures was measured at 420 nm using the Spectramax™ plate reader. The onset clotting time was determined as an intersection of the baseline and the tangent line at point of inflection of the clotting curve. The concentration of an MH2 peptide needed to double the clotting time was defined as IC50 (DiMaio 1990) as illustrated in FIG. 4 and summarized in Table 4. The correlation between IC50 values and linker unfolding is similar to that for the BTI series of inhibitors (Table 3). […] (Table 3).

The next test relates to pooled human plasma. Nature of the test: Prothrombin time (PT, thromboplastin) clotting assay. In kind it is biochemical. In a few lines: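 Test compound diluted in HBS (20 mM HEPES, 150 mM NaCl, pH 7.4), mixed with pooled normal human plasma at 37 °C; APTT started with APTT reagent then CaCl2, PT with thromboplastin. APTT value is concentration giving 50% of maximum clotting delay (MCT50); PT IC50 is concentration prolonging clotting time by 50%.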

In test [1] the test system is FeCl3-induced venous thrombosis (vena cava). Kind of test: FeCl3-induced venous model of thrombosis in rats (thrombus weight). The test is classed as in vivo. To be noted: rat, single-bolus injection via tail vein. As for the experimental part: Male Sprague-Dawley rats (250-310 g; Charles River Laboratories, St-Constant, QC, Canada) were acclimated for at least 3 days prior to the start of the study. Animals were housed in microisolator cages and were kept on a 12-hr light/dark cycle with constant temperature and humidity. Food and water were provided ad libitum. Various anti-thrombotic agents and peptides of this invention were dissolved in saline (0.9% sodium chloride) prior to use.
The FeCl3-induced venous model of thrombosis in rats was generated as described by Wang and Xu (Wang 2005) with some modifications (Couture 2011). Briefly, rats were anesthetized with a 2.5% isoflurane/oxygen mixture and placed on a heat source (35-37° C.). The vena cava was then exposed via a midline incision and the region between the renal and iliolumbar veins was isolated. […]
Protein content of the thrombus was also measured according to protocol by Wang (Wang 2005). […] Contents of amino acids and small peptides were measured at OD280 with digestion buffer used as a blank.
Statistical analysis was conducted using GraphPad™ Prism (GraphPad Software Inc., San Diego Calif., USA). Data were analyzed using one-way ANOVA with post-hoc Bonferroni correction for multiple comparisons. The relationship between thrombus weight and thrombus volume was determined by linear regression. […]

Regarding `CC[C@H](C)[C@H](N)C(=O)N[C@@H](CCCNC(=N)N)C(=O)N[C@@H](Cc1ccccc1)C(=O)N[C@H](C(=O)N[C@@H](CC(=O)O)C(=O)NCC(=O)N[C@@H](CCC(=O)O)C(=O)N[C@@H](Cc1c[nH]c2ccccc12)C(=O)N[C@H](C(=O)N[C@@H](Cc1c[nH]c2ccccc12)C(=O)N[C@@H](CC(=O)O)C(=O)N[C@@H](CC(=O)O)C(=O)N[C@@H](C)C(=O)N[C@H](C(=O)N[C@@H](CCCCN)C(=O)N[C@H](C(=O)N[C@@H](Cc1c[nH]c2ccccc12)C(=O)N[C@H](C(=O)N[C@@H](Cc1c[nH]c2ccccc12)C(=O)N[C@H](C(=O)N[C@@H](CCC(=O)O)C(=O)NCC(=O)N[C@@H](CC(=O)O)C(=O)N[C@@H](Cc1ccccc1)C(=O)N[C@@H](CCC(=O)O)C(=O)N[C@@H](CCC(=O)O)C(=O)N[C@H](C(=O)N1CCC[C@H]1C(=O)N[C@@H](CCC(=O)O)C(=O)N[C@@H](CCC(=O)O)C(=O)N[C@@H](Cc1ccc(O)cc1)C(=O)N[C@@H](CC(C)C)C(=O)N[C@@H](CCC(N)=O)C(=O)O)[C@@H](C)CC)[C@@H](C)O)[C@@H](C)O)[C@@H](C)O)[C@@H](C)O)[C@@H](C)O)[C@@H](C)O` [MH2-wZIP4], on thrombin, the Ki (usually a measure of affinity in units of concentration, obtained from inhibition or displacement) is roughly 150 nM. Besides, the half-maximal inhibitory concentration (IC50) (usually the point on the concentration scale where inhibition reaches its midpoint) is roughly 250 nM on thrombin (T = 25° C.); 154 nM at thrombin (T = 37° C.); 1000 nM in the test with pooled human plasma (37° C., concentration that prolongs clotting time by 50%). The “Plateau of prothrombin time dose response” value with pooled human plasma (37° C.) is given as “(Plateau at >900 nM)”. In addition, the “anticoagulant effect in PT versus APTT assays” value in the test on pooled human plasma (in words) is “greatly-reduced anticoagulant potency in both the PT and APTT assays”. In test [1], the “reduction of thrombus weight, venous model” value is “particularly efficacious in reducing the weight of local thrombus formation; also recorded: more effective than other anti-thrombotic agents (heparin, argatroban and bivalirudin)”.
